Results published in PMC10220917, “Transdermal Delivery of α-Aminophosphonates as Semisolid Formulations—An In Vitro-Ex Vivo Study” (Pharmaceutics, 2023).
Several values for one entry are separate records, joined by “and”; a condition that tells them apart may be missing. Equal values may be shown once.

Experiments:
[1] = Drug penetration in static Franz diffusion cells through excised rat skin; type: in vitro ADME, male Wistar rats; conditions: 2% cream, Franz cell, 32 °C
Procedure: In the ex vivo experiments, the abdominal skin of male Wistar rats (ToxiCoop, Budapest, Hungary), with 520–609 g bodyweight, were used. The animals had free access to food and water before the study. The experiments were performed in compliance with the guidelines of the Association for Assessment and Accreditation of Laboratory Animal Care International and were in accordance with the spirit of the license issued by the Directorate for the Safety of the Food Chain and Animal Health, Budapest, and Pest Agricultural Administrative Authority, Hungary (PE/EA/4122-7/2016). The rats were anaesthetized intraperitoneally with chloral hydrate (400 mg/kg). The abdominal surface was shaved with an electric shaver and epilated with an epilator cream (X-epil, Aveola Kft., Budapest, Hungary). […] The double-layered skin (pinched together by hand) thickness of the epilated tape-stripped skin was measured with an engineer’s micrometer (Asimeto, Budapest, Hungary). […]
Hanson 6-Cell Manual Diffusion Test System-type vertical diffusion cells (Franz cell) were used (Hanson Research Corp., Chatsworth CA, USA; ABL&E-JASCO Hungary Kft., Budapest, Hungary, Figure 1A). […] The weight of the sample was measured with analytical accuracy. […]

[2] = Drug release in dynamic skin-on-a-chip microfluidic diffusion chamber through cellulose acetate membrane; type: in vitro ADME; conditions: 2% cream
Procedure: (§1) For the in vitro studies, cellulose acetate filter with pore size of 0.45 μm (Sartorius AG, Göttingen, Germany) was cut to size (35 mm and 18 mm diameter discs for Franz diffusion cell and skin-on-a-chip microfluidic system, respectively) and soaked in isopropyl myristate (Molar Chemicals Kft., Halásztelek, Hungary) for 30 min before the experiment. The excess of isopropyl myristate was removed, and the impregnated cellulose acetate membrane was placed into the Franz diffusion cell or microfluidic diffusion chamber.
The skin-on-a-chip microfluidic diffusion chamber is a polydimethylsiloxane-based system in an aluminium frame (Figure 1B). Similar to the Franz diffusion cells, it contains two compartments, and the membrane or skin is placed between them. The major advantage of this technique is the reduction in needed volumes and pieces in the required components, membranes and skins, as discussed in detail in our previous papers. The diffusion surface is 0.5 cm^2, which separates the aminophosphonate cream-containing donor chamber and the PPF-filled receptor chamber. […]
(§2) The Franz diffusion cell data and the skin-on-a-chip data were averaged, and the means and standard error of the mean (SE) were calculated and presented. Area under the curve (AUC) values were calculated using Origin Pro software. […]

[3] = Drug penetration in dynamic skin-on-a-chip microfluidic diffusion chamber through excised rat skin; type: in vitro ADME, male Wistar rats; conditions: 2% cream; for Cmax (cumulative mass penetrated through excised skin): dynamic cell, excised rat skin, 5 h; for Effect of higher temperature on absorption across excised skins: 32 °C vs 23.5 °C, dynamic diffusion cells
Procedure: In the ex vivo experiments, the abdominal skin of male Wistar rats (ToxiCoop, Budapest, Hungary), with 520–609 g bodyweight, were used. The animals had free access to food and water before the study. The experiments were performed in compliance with the guidelines of the Association for Assessment and Accreditation of Laboratory Animal Care International and were in accordance with the spirit of the license issued by the Directorate for the Safety of the Food Chain and Animal Health, Budapest, and Pest Agricultural Administrative Authority, Hungary (PE/EA/4122-7/2016). The rats were anaesthetized intraperitoneally with chloral hydrate (400 mg/kg). The abdominal surface was shaved with an electric shaver and epilated with an epilator cream (X-epil, Aveola Kft., Budapest, Hungary). The skin was washed, wiped dry and mechanically sensitized 10 times by tape stripping with leucoplast (BSN Medical GmbH, Hamburg, Germany) to remove the upper layers of dead keratinocytes. This technique enables reaching detectable concentrations in the dermis and hypodermis. The double-layered skin (pinched together by hand) thickness of the epilated tape-stripped skin was measured with an engineer’s micrometer (Asimeto, Budapest, Hungary). The average double-layered skin thickness was 1.53 ± 0.03 mm. After the first cutting with blunt Metzen scissors, connecting tissue, fat and blood vessels were carefully removed. For the Franz diffusion cell and skin-on-a-chip studies, full-thickness skin incisions were made by punches (Stubai GmbH, Fulpmes, Austria) in diameter of 35 mm and 18 mm, respectively. The excised samples were wrapped in aluminium foil and stored in a deep freezer at −80 °C. On the day of the study, the skin preparations were taken out from the freezer for 30 min before the initiation of the experiment and thawed at room temperature.
The skin-on-a-chip microfluidic diffusion chamber is a polydimethylsiloxane-based system in an aluminium frame (Figure 1B). Similar to the Franz diffusion cells, it contains two compartments, and the membrane or skin is placed between them. The major advantage of this technique is the reduction in needed volumes and pieces in the required components, membranes and skins, as discussed in detail in our previous papers. The diffusion surface is 0.5 cm^2, which separates the aminophosphonate cream-containing donor chamber and the PPF-filled receptor chamber. Contrary to the static Franz diffusion cells, the microfluidic diffusion chamber is a dynamic system, i.e., the PPF flow is continuous in the receptor compartment, ensured by a syringe pump (NE-1000, New Era, Farmingdale, NY, USA), which includes a 5 mL syringe filled with PPF, at a flow rate of 4 µL/min during the experiment. The PPF solution was running through the chip, filling the receptor chamber and the microfluidic channel and leaving the device at the outlet into collection vials. The samples were collected every 30 min for 5 h. The collected samples were placed on dry ice and stored at −80 °C until the bioanalysis. First, the experiments were performed at room temperature (23.5 °C) with temperature regulation by automatic air conditioning system in the lab in three parallels. The investigations were then repeated at 32 °C, putting the whole system into an incubator (Steriliser SN160, Memmert GmbH, Schwabach, Germany). As the volume capacity of incubator was low, only one syringe pump and skin-on-a-chip could be tested in the instrument at the same time. […]

[4] = Particle size (droplet size) distribution of 2% creams by laser diffraction; type: physicochemical; conditions: 2% cream formulation
Source text: α-Aminophosphonates were dispersed in the following hydrophilic cream base (O/W emulsion ointments): 46 m/m% Petrolatum ointment base, 10 m/m% Propylene glycol (Hungaropharma Zrt., Budapest, Hungary), 4 m/m% Paraffin oil (Hungaropharma Zrt., Budapest, Hungary), 38 m/m% Purified water. The components of the Petrolatum ointment base were 26 m/m% Vaselinum album (Hungaropharma Zrt., Budapest, Hungary), 12 m/m% Cetostearyl alcohol (Molar Chemicals Kft, Halásztelek, Hungary), 10 m/m% Propylene glycol, 8 m/m% Paraffin oil, 4 m/m% Polyoxyethylene sorbitan monostearate (Poly-sorbate 60) (Hungaropharma Zrt. Budapest, Hungary), and 40 m/m% Purified water (Table 3). The concentration of propylene glycol was set based on the recommendations on topical dosage forms.
The particle size distribution was measured with a Malvern Mastersizer2000 (Malvern Instruments Ltd., Malvern, UK) laser diffraction device. In total, 1 g of sample was dispersed in 10 mL of water, and after 1 min of Vortex shaking, 1 mL was taken and added to the sample dispenser unit containing 100 mL of purified water. The dispenser unit was applied at 1500 RPM.
The multi-channel detector system measured the scattering of red laser light with a wavelength of […], and the evaluation software provided the results after three parallel exposures according to the Fraunhofer method. The average curves were calculated from three parallel measurements. […]

[5] = test system: multidrug-resistant (MDR) uterine sarcome cell line; design: method as in earlier work; conditions: MDR uterine sarcoma cells; cited from earlier work
[6] = Drug release in static Franz diffusion cells through cellulose acetate membrane; type: in vitro ADME; conditions: 2% cream, Franz cell, 32 °C
Procedure: as §1
Hanson 6-Cell Manual Diffusion Test System-type vertical diffusion cells (Franz cell) were used (Hanson Research Corp., Chatsworth CA, USA; ABL&E-JASCO Hungary Kft., Budapest, Hungary, Figure 1A). Each unit was composed of a donor chamber, which was filled with 1000 µL of the aminophosphonate cream by a Microman E piston gel positive replacement pipette (Gilson, Middleton, WI, USA). The sample was layered in a uniform layer on the top of the membrane. The weight of the sample was measured with analytical accuracy. […]
as §2

Row | SMILES | Penetration profile in rat skin [1] | Cmax (cumulative mass penetrated through excised skin) ([1]; excised rat skin, 5 h) | Cmax (cumulative mass released through membrane) ([2]; dynamic cell, cellulose acetate membrane, 32 °C, 5 h) | Effect of higher temperature on penetration through membranes ([2]; 32 °C vs 23.5 °C, dynamic diffusion cells) | Cmax (cumulative mass penetrated through excised skin) ([3]; 32 °C) | Cmax (cumulative mass penetrated through excised skin) ([3]; ambient temperature (23.5 °C)) | Effect of higher temperature on absorption across excised skins [3] | Particle (droplet) size d of main peak [4] | Volume share at main particle size peak [4] | Degree of cytotoxicity [5] | Penetration kinetics in the membrane [6] | Cmax (cumulative mass released through membrane) ([6]; cellulose acetate membrane, 5 h) | Particle (droplet) size d of second peak [4] | Volume share at second particle size peak [4]
1 | CCOP(=O)(OCC)C(NCc1ccccc1)c1ccccc1 (stereo not drawn) [1a] | almost linear growing profile | ~ 21 µg/cm^2 | ~ 300 µg/cm^2 | only moderately enhanced | ~ 9 µg/cm^2 | ~ 2.8 μg/cm^2 | significantly improved | 33.156 µm and 33 µm | 7% | less cytotoxic | rapid and saturating | ~ 330 µg/cm^2 |  | 
2 | CCOP(=O)(OCC)C(NCc1ccccc1)c1ccc(C)cc1 (stereo not drawn) [1b] |  |  |  |  |  |  | practically independent of the temperature | 30–40 µm | about 6.3% | most effective |  |  | 110 µm | about 3.2%
3 | CCOP(=O)(OCC)C(NCc1ccccc1)c1ccc(Cl)cc1 (stereo not drawn) [1c] |  |  |  |  |  |  | significantly improved | 20–30 µm | 7.3% | most effective |  |  | 110 µm | ~ 3.0%
